From US6683077B2, “2-Amino-benzoxazinones for the treatment of viral infections” (G.D. Searle & Co., priority 1996, dated 2004)

tested on: HCMV engineered virus RC256; assay: microbe, parasite or virus in culture; assay type: cell-based, human cytomegalovirus; settings: Human betaherpesvirus 5, Fibroblast, read-out: Antiviral Activity RC256, first value (EC50)

`CCN(Cc1ccccc1)C(=O)[C@H](Cc1ccccc1)Nc1nc2ccc(CNC(=O)OC(C)(C)C)c(C)c2c(=O)o1` [Example 7l, 1,1-Dimethylethyl[[2-[[2-[ethyl(phenylmethyl)amino]-2-oxo-1S-(phenylmethyl)ethyl]amino]-5-methyl-4-oxo-4H-3,1-benzoxazin-6-yl]methyl]carbamate] and `Cc1c(CNC(=O)NC(C)(C)C)ccc2nc(N[C@@H](Cc3ccccc3)C(=O)N(C)Cc3ccccc3)oc(=O)c12` [Example 12e, αS-[[6-[[[[(1,1-Dimethylethyl)amino]carbonyl]amino]methyl]-5-methyl-4-oxo-4H-3,1-benzoxazin-2-yl]amino]-N-methyl-N-(phenylmethyl)benzenepropanamide] are within 1.5-fold of each other in EC50: 13 µM for the first, 14 µM for the second.

Compared with `Cc1c(CNC(=O)OC(C)(C)C)ccc2nc(N[C@@H](Cc3ccccc3)C(=O)N(C)Cc3cccnc3)oc(=O)c12` [Example 7s, 1,1-Dimethylethyl[[5-methyl-2-[[2-[methyl[(3-pyridinyl)methyl]amino]-1S-(phenylmethyl)-2-oxoethyl]amino]4-oxo-4H-3,1-benzoxazin-6-yl]methyl]carbamate], `Cc1c(CNC(=O)OCc2ccccc2)ccc2nc(N[C@@H](Cc3ccccc3)C(=O)N(C)Cc3cccnc3)oc(=O)c12` [Example 9z] is 1.6-fold lower in EC50: 16 µM for the first, 10 µM for the second. The second is the more potent here.

First: CCN(Cc1ccccc1)C(=O)[C@H](Cc1ccccc1)Nc1nc2ccc(N)c(C)c2c(=O)o1 [Example 8f, αS-[(6-Amino-5-methyl-4-oxo-4H-3,1-benzoxazin-2-yl)amino]-N-ethyl-N-(phenylmethyl)benzenepropanamide]
Second: CCN(Cc1ccccc1)C(=O)[C@H](Cc1ccccc1)Nc1nc2c(Br)cc(N)c(C)c2c(=O)o1 [Example 8g, αS-[(6-Amino-8-bromo-5-methyl-4-oxo-4H-3,1-benzoxazin-2-yl)amino]-N-ethyl-N-(phenylmethyl)benzenepropanamide]
The EC50 of the first is 2-fold higher: 17 µM for the first, 8.5 µM for the second. The second is the more potent here.

Going from `COc1ccc(C[C@H](Nc2nc3ccc(N)c(C)c3c(=O)o2)C(=O)N(C)Cc2ccccc2)cc1` [Example 8h, αS-[(6-amino-5-methyl-4-oxo-4H-3,1-benzoxazin-2-yl)amino]-N-methyl-4-methoxy-N-(phenylmethyl)benzenepropanamide] to `COc1ccc(C[C@H](Nc2nc3ccc(N(C)C)c(C)c3c(=O)o2)C(=O)N(C)Cc2ccccc2)cc1` [Example 16a, αS-[[6-(Dimethylamino)-5-methyl-4-oxo-4H-3,1-benzoxazin-2-yl]amino]-4-methoxy-N-methyl-N-(phenylmethyl)benzenepropanamide], the EC50 falls from 100 µM to 15 µM (6.7-fold). The second is the more potent here.

Going from `Cc1c(CNC(=O)CCc2ccccc2)ccc2nc(N[C@@H](Cc3ccccc3)C(=O)N(C)Cc3cccnc3)oc(=O)c12` [Example 9aa, N-Methyl-αS-[[5-methyl-4-oxo-6-[[(1-oxo-3-phenylpropyl)amino]methyl]-4H-3,1-benzoxazin-2-yl]amino]-N-(3-pyridinylmethyl)benzenepropanamide] to `Cc1c(CNC(=O)CCc2ccccc2)ccc2nc(N[C@@H](Cc3ccccc3)C(=O)N(C)Cc3ccccc3)oc(=O)c12` [Example 9w, N-Methyl-αS-[[5-methyl-6-[[(1-oxo-3-phenylpropyl)amino]-methyl]-4-oxo-4H-3,1-benzoxazin-2-yl]amino]-N-(phenylmethyl)benzenepropanamide], the EC50 falls from 33 µM to 13 µM (2.5-fold).

Compared with `COc1ccc(C[C@H](Nc2nc3ccc(CNC(=O)CN4CCCC4)c(C)c3c(=O)o2)C(=O)N(C)Cc2ccccc2)cc1` [Example 9c, N-[[2-[[1S-[(4-Methoxyphenyl)methyl]-2-[methyl(phenylmethyl)amino]-2-oxoethyl]amino]-5-methyl-4-oxo-4H-3,1-benzoxazin-6-yl]methyl]pyrrolidine-1-acetamide], `COc1ccc(C[C@H](Nc2nc3ccc(CNC(=O)CN4CCOCC4)c(C)c3c(=O)o2)C(=O)N(C)Cc2ccccc2)cc1` [Example 9n, N-[[2-[[1S-[(4-Methoxyphenyl)methyl]-2-[methyl(phenylmethyl)amino]-2-oxoethyl]amino]-5-methyl-4-oxo-4H-3,1-benzoxazin-6-yl]methyl]morpholine-4-acetamide] is 8.3-fold higher in EC50: 9 µM for the first, 75 µM for the second.

`COc1ccc(C[C@H](Nc2nc3ccc(CNC(=O)CCc4cccnc4)c(C)c3c(=O)o2)C(=O)N(C)Cc2ccccc2)cc1` [Example 9d, N-[[2-[[1S-[(4-Methoxyphenyl)methyl]-2-[methyl(phenylmethyl)amino]-2-oxoethyl]amino]-5-methyl-4-oxo-4H-3,1-benzoxazin-6-yl]methyl]pyridine-3-propanamide] and `COc1ccc(C[C@H](Nc2nc3ccc(CNC(=O)CCc4ccncc4)c(C)c3c(=O)o2)C(=O)N(C)Cc2ccccc2)cc1` [Example 9f, N-[[2-[[1S-[(4-Methoxyphenyl)methyl]-2-[methyl(phenylmethyl)amino]-2-oxoethyl]amino]-5-methyl-4-oxo-4H-3,1-benzoxazin-6-yl]methyl]pyridine-4-propanamide] are within 1.5-fold of each other in EC50: 41 µM for the first, 40 µM for the second.

First: COc1ccc(C[C@H](Nc2nc3ccc(CNC(=O)NCc4ccncc4)c(C)c3c(=O)o2)C(=O)N(C)Cc2ccccc2)cc1 [Example 9e, 4-Methoxy-N-methyl-αS-[[5-methyl-4-oxo-6-[[[[[(4-pyridinyl)methyl]amino]carbonyl]amino]methyl]-4H-3,1-benzoxazin-2-yl]amino]-N-(phenylmethyl)benzenepropanamide]
Second: COc1ccc(C[C@H](Nc2nc3ccc(CNC(=O)OCc4ccccc4)c(C)c3c(=O)o2)C(=O)N(C)Cc2ccccc2)cc1 [Example 9i, Phenylmethyl[[2-[[1S-[(4-methoxyphenyl)methyl]-2-[methyl(phenylmethyl)amino]-2-oxcethyl]amino]-5-methyl-4-oxo-4H-3,1-benzoxazin-6-yl]methyl]carbamate]
The EC50 of the first is 2.5-fold higher: 35 µM for the first, 14 µM for the second. The second is the more potent here.

Compared with `COc1ccc(C[C@H](Nc2nc3ccc(CNC(=O)C(C)(C)C)c(C)c3c(=O)o2)C(=O)N(C)Cc2ccccc2)cc1` [Example 9l, αS-[[6-[[(2,2-Dimethyl-1-oxopropyl)amino]methyl]-5-methyl-4-oxo-4H-3,1-benzoxazin-2-yl]amino]-4-methoxy-N-methyl-N-(phenylmethyl)benzenepropanamide], `COc1ccc(C[C@H](Nc2nc3ccc(CNC(=O)NC(C)(C)C)c(C)c3c(=O)o2)C(=O)N(C)Cc2ccccc2)cc1` [Example 12d, αS-[[6-[[[[(1,1-Dimethylethyl)amino]carbonyl]amino]methyl]-5-methyl-4-oxo-4H-3,1-benzoxazin-2-yl]amino]-4-methoxy-N-methyl-N-(phenylmethyl)benzenepropanamide] is 4.6-fold lower in EC50: 65 µM for the first, 14 µM for the second.

`Cc1c(CNC(=O)OCc2ccccc2)ccc2nc(N[C@@H](Cc3ccc(Cl)cc3)C(=O)N(C)Cc3ccccc3)oc(=O)c12` [Example 9t, Phenylmethyl[[2-[[1S-[(4-chlorophenyl)methyl]-2-[methyl(phenylmethyl)amino]-2-oxoethyl]amino]-5-methyl-4-oxo-4H-3,1-benzoxazin-6-yl]methyl]carbamate] and `COc1ccc(C[C@H](Nc2nc3ccc(CNC(=O)CCc4ccccc4)c(C)c3c(=O)o2)C(=O)N(C)Cc2ccccc2)cc1` [Example 9u, 4-Methoxy-N-methyl-αS-[[5-methyl-6-[[(1-oxo-3-phenylpropyl)amino]methyl]-4-oxo-4H-3,1-benzoxazin-2-yl]amino]-N-(phenylmethyl)benzenepropanamide] are within 1.5-fold of each other in EC50: 20 µM for the first, 18 µM for the second.

First: Cc1c(CNC(=O)C=Cc2ccccc2)ccc2nc(N[C@@H](Cc3ccccc3)C(=O)N(C)Cc3ccccc3)oc(=O)c12 [Example 9v, N-Methyl-αS-[[5-methyl-6-[[(1-oxo-3-phenyl-2-propenyl)amino]methyl]-4-oxo-4H-3,1-benzoxazin-2-yl]amino]-N-(phenylmethyl)benzenepropanamide]
Second: CC(=O)NCc1ccc2nc(N[C@@H](Cc3ccccc3)C(=O)N(C)Cc3ccccc3)oc(=O)c2c1C [Example 9x, αS-[[6-[(Acetylamino)methyl]-5-methyl-4-oxo-4H-3,1-benzoxazin-2-yl]amino]-N-methyl-N-(phenylmethyl)benzenepropanamide]
The EC50 of the first is 1.6-fold higher: 26 µM for the first, 16 µM for the second.

Going from `COC(=O)[C@H](Cc1ccccc1)Nc1nc2ccc(NC(=O)Cc3cccs3)c(C)c2c(=O)o1` [Example 11g, N-[6-[[(2-Thienylmethyl)carbonyl]amino]-5-methyl-4-oxo-4H-3,1-benzoxazin-2-yl]-L-phenylalanine, methyl ester] to `COC(=O)[C@H](Cc1ccccc1)Nc1nc2ccc(NS(=O)(=O)c3ccccc3)c(C)c2c(=O)o1` [Example 13], the EC50 rises from 10 µM to 60 µM (6-fold).

Compared with `COc1ccc(C[C@H](Nc2nc3ccc(NC(=O)Cc4cccs4)c(C)c3c(=O)o2)C(=O)N2CCCC2)cc1` [Example 11o, N-[2-[[1S-[(4-Methoxyphenyl)methyl]-2-oxo-2-(1-pyrrolidinyl)ethyl]amino]-5-methyl-4-oxo-4H-3,1-benzoxazin-6-yl]thiophene-2-acetamide], `CCOC(=O)Nc1ccc2nc(N[C@@H](Cc3ccc(OC)cc3)C(=O)N(C)Cc3ccccc3)oc(=O)c2c1C` [Example 11r, Ethyl[2-[[1S-[(4-methoxyphenyl)methyl]-2-[methyl(phenylmethyl)amino]-2-oxoethyl]amino]-5-methyl-4H-3,1-benzoxazin-6-yl]carbamate] is 4.9-fold lower in EC50: 59 µM for the first, 12 µM for the second.

Compared with `Cc1c(NC(=O)N[C@H](C)c2ccccc2)ccc2nc(N[C@H](C)c3ccccc3)oc(=O)c12` [Example 12c, ^6-[[[[(1R)-Phenylethyl]amino]carbonyl]amino]-5-methyl-2-[[(1R)-phenylethyl]amino]-4H-3,1-benzoxazin-4-one], `COC(=O)[C@H](C)Nc1nc2ccc(NS(=O)(=O)c3ccccc3)c(C)c2c(=O)o1` [Example 13a] is 3.5-fold higher in EC50: 17 µM for the first, 60 µM for the second. The first is the more potent here.

Going from `Cc1c(CNC(=O)CN(C)C)cc(Br)c2nc(N[C@@H](Cc3ccccc3)C(=O)N(C)Cc3ccccc3)oc(=O)c12` [Example 15a, αS-[[8-Bromo-6-[[[2-(dimethylamino)acetyl]amino]methyl]-5-methyl-4-oxo-4H-3,1-benzoxazin-2-yl]amino]-N-methyl-N-(phenylmethyl)benzenepropanamide] to `Cc1c(CNS(C)(=O)=O)cc(Br)c2nc(N[C@@H](Cc3ccccc3)C(=O)N(C)Cc3ccccc3)oc(=O)c12` [Example 15j, αS-[[8-Bromo-5-methyl-6-[[(methylsulfonyl)amino]methyl]-4-oxo-4H-3,1-benzoxazin-2-yl]amino]-N-methyl-N-(phenylmethyl)benzenepropanamide], the EC50 falls from 21 µM to 13 µM (1.6-fold). The second is the more potent here.
